Patent US10300104B2, “Multi-arm linker for treating rejection reaction in transplantation” (Immunwork Inc., priority 2015, dated 2019)

B1: tetrazine-conjugated scFv specific for human HLA-A1: scFv specific for human HLA-A1 conjugated at C-terminal cysteine with Mal-PEG4-tetrazine (protein)
scFv: DIQMTQSPSTLSASVGDRVTITCRASQSISNWLAWYQQKPGKAPNLLIYKASSLESGVPSRFSGSGSGTEFTLTISSLQPDDFATYYCQQYHDYSVTFGAGTKVEIKRGGGGSGGGGSGGGGSEVQLLESGGGLVQPGGSQRLSCVASGVPFSNYAMNWVRQAPGKGLEWVSSISGGGDRTFYADSVKGRFTISRDNSKNTLYLQMNSLGAGDTAVYYCAKTYYDFWSGYSRHLNSWGQGSLVTVSSGGGGSGGGGSC
B2: 3E10: phage-displayed human scFv clone specific for human HLA-A2, SEQ ID NO: 34 (protein)
scFv: DIQMTQSPSSLSASVGDRVTITCRASQDVFFFVAWYQQKPGKAPKLLIYGPPGLYSGVPSRFSGSGSGTDFTLTISSLQPEDFATYYCQQYFSFPITFGQGTKVEIKRGGGGSIEGRSGGGGSEVQLVESGGGLVQPGGSLRLSCAASGFTISNGGIHWVRQAPGKGLEWVASIWPSGGYTSYADSVKGRFTISADTSKNTAYLQMNSLRAEDTAVYYCARFGVNYHGIMDYWGQGTLVTVSS
modifications: phage-displayed scFv specific for HLA-A2, 3E10

Assays:
scFv specific for CTLA-4 = assay: Western blot of recombinant CTLA-4 with scFv specific for CTLA-4; type: binding; details: scFv specific for CTLA-4 1 μg/ml; FIG. 14C
Description: Recombinant CTLA-4 protein was analyzed and detected using western blotting. Briefly, 50 μl of the purified CTLA-4 protein was electrophoresed on the 12% SDS-PAGE gel (lane 2) and electroblotted over to a PDVF membrane. The protein (CTLA-4)-IgG1Fc-(scFv α HLA-A1) was used as a positive control (lane 1). After blocking with 5% BSA in TBST at room temperature for 1 hour, the diluted scFv specific for CTLA-4 (1 μg/ml) was added and incubated with the membrane overnight at 4° C. with gentle shaking. The membrane was rinsed and washed 3 times with TBST. The diluted HRP-conjugated protein L (1:5000) was added and incubated with the membrane at room temperature for 1 hour, and the rinse and wash cycle was repeated with TBST for 3 times. The membrane was then incubated with HRP substrate solution for 20 minutes before being exposed to the photographic film.

[1] = system: mTOR/p70S6K signaling pathway; assay: Western blot analysis of mTOR/p70S6K signaling pathway in Jurkat T cells; type: cell-based, human; details: 10 ng/ml IL2, 100 nM, 24 hours, FIG. 20A
Description: To examine the biological activities of these compounds, western blot analysis of mTOR/p70S6K signaling pathway and T-cell proliferation assay were performed with human Jurkat T cells. T-cell viability and proliferation were assessed using alamarBlue® cell viability reagent (Invitrogen).
For the western blot analysis of mTOR/p70S6K signaling pathway, briefly, Jurkat T cell were seeded into 6-cm cell culture dish in RPM11640 medium containing 10% fetal bovine serum.
Insoluble material was collected by centrifugation at 14,000×g for 20 minutes at 4° C. The cell lysate samples were separated on 10% SDS-PAGE gels and transferred to a PVDF membrane (Millipore). The membrane blots were blocked in PBS containing 5% BSA for 1 hour at room temperature, and incubated with primary antibodies, anti-phospho-p70S6K antibody (Cell Signaling Technology, Danvers, USA) and anti-p70S6K antibody (Cell Signaling Technology), overnight at 4° C. […] Then the membranes were washed three times with TBST, and immunoreacted bands were detected with ECL™ western blotting detection reagents (Millipore) and exposed on Fujifilm (Tokyo, Japan). Relative quantification of ECL signals on X-ray films were analyzed by using Image J (NIH, Bethesda, Md., USA).

PD1-IgG1.Fc = target: T1, PD1-IgG1.Fc (Homo sapiens, UniProt Q15116); assay: ELISA of recombinant PD-L1 binding to PD1-IgG1.Fc; details: plate coated with PD-L1 50 μg/ml; PD1-IgG1.Fc 50 μg/ml; FIG. 14D
T1 construct: made in house; host or cells: Expi293F
T1 sequence (Q15116 with tags, fused parts or gaps): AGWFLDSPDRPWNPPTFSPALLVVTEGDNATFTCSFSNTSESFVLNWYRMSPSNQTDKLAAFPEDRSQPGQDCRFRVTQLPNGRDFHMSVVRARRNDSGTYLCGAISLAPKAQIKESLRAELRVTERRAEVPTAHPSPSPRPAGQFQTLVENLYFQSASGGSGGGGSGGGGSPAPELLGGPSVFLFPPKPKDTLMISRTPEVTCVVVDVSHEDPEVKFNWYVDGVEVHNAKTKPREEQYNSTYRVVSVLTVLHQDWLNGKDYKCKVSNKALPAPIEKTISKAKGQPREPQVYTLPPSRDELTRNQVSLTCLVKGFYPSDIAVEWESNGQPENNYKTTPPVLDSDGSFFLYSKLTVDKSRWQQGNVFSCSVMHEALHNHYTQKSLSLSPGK
Description: Binding activity of recombinant PD-L1 protein was assayed with ELISA using a 96-well plate coated with recombinant PD-L1 protein in 50 μg/ml concentration, 100 μl per well. After the excess PD-L1 was washed off and the solid phase blocked, 100 μl per well of PD1-IgG1.Fc at 50 μg/ml was added. The bound PD1-IgG1.Fc was determined by HRP-conjugated goat anti-human IgG.Fc. 50 μl of TMB substrate was added for color development. The reaction was stopped by 50 μl of 1M HCl. Absorbance at 450 nm was measured with a plate reader. Each bar represents the mean OD450 value of duplicate samples.

recombinant HLA-A1 = target: T2, recombinant HLA-A1 (Homo sapiens, UniProt P04439); assay: ELISA of tetrazine-conjugated scFv specific for human HLA-A1; type: binding; details: FIG. 17B
T2 construct: made in house; host or cells: Expi293F
Source text: The purity of tetrazine-conjugated scFv specific for human HLA-A1 was identified through Coomassie blue staining of 12% SDS-PAGE. FIGS. 17A and 17B show, respectively, the mass spectrometric and ELISA analysis of tetrazine-conjugated scFv specific for human HLA-A1, in which unmodified scFv specific for human HLA-A1 was used as a positive control.

human HLA-A2 = target: T3, human HLA-A2 (Homo sapiens, UniProt P04439); assay: Single colony ELISA of phage-displayed scFvs specific for human HLA-A2; type: binding; details: HLA-A2 0.5 μg/100 μl per well; FIG. 16B
T3 construct: made in house; host or cells: Expi293F
Description: E. coli strain ER2738 infected with single-clonal phages each harboring a selected scFv gene in its phagemid was grown in the mid-log phase in 2YT broth (16 g/l tryptone, 10 g/l yeast extract, 5 g/l NaCl, pH 7.0) with 100 μg/ml ampicillin in deep well at 37° C. with shaking. After the broth reached an OD600 of 1.0, IPTG was added to a final concentration of 1 μg/ml. The plates were incubated at 37° C. overnight under rigorously shaking. Thereafter, the plates were centrifuged at 4,000 g for 15 minutes at 4° C.
For soluble scFv binding test, ELISA was carried out. Briefly, 96-well Maxisorp 96-well plate (Nunc) was coated with human HLA-A2 (0.5 μg/100 μl PBS per well) or two negative control antigens, human heat shock protein 70 (Hsp 70) and RSV-IgG1.Fc fusion protein (prepared by our laboratory), for 18 hours with shaking at 4° C. After being treated with 300 μl of blocking buffer for 1 hour, 100 μl of secreted scFv in the supernatant was mixed with 100 μl of blocking buffer and then added to the coated plate for another 1 hour. Goat anti-E-tag antibody (conjugated with HRP, 1:4000, Cat. No. AB19400, Abcam) was added to the plate for 1 hour. TMB substrate (50 μl per well) was added to the wells and the absorbance at 450 nm was measured after reactions were stopped by adding 1N HCl (50 μl per well).

Molecule | mTOR/p70S6K signally pathway in the treated T cells, compared with unmodified sirolimus [1] | phosphorylated level of p70S6K [1] | also measured
recombinant human CTLA-4: recombinant human CTLA-4 (SEQ ID NO: 30) with GGGGSGGGGS linker and terminal cysteine | – | – | binding by the scFv specific for CTLA-4 (western blot) (scFv specific for CTLA-4): specifically bound
CO[C@H]1C[C@@H]2CC[C@@H](C)[C@@](O)(O2)C(=O)C(=O)N2CCCC[C@H]2C(=O)O[C@H]([C@H](C)C[C@@H]2CC[C@@H](OC(=O)CNC(=O)CN)[C@H](OC)C2)CC(=O)[C@H](C)/C=C(\C)[C@@H](O)[C@@H](OC)C(=O)[C@H](C)C[C@H](C)/C=C/C=C/C=C/1C [sirolimus-diGly, sirolimus di-glycine] | blocked | decreased | –
CO[C@H]1C[C@@H]2CC[C@@H](C)[C@@](O)(O2)C(=O)C(=O)N2CCCC[C@H]2C(=O)O[C@H]([C@H](C)C[C@@H]2CC[C@@H](OC(=O)CN)[C@H](OC)C2)CC(=O)[C@H](C)/C=C(\C)[C@@H](O)[C@@H](OC)C(=O)[C@H](C)C[C@H](C)/C=C/C=C/C=C/1C [sirolimus-Gly, Sirolimus monoglycine] | blocked | decreased | –
recombinant human PD-L1: recombinant human PD-L1 (SEQ ID NO: 31) with GGGGSGGGGS linker and terminal cysteine | – | – | binding to recombinant PD1-IgG1.Fc (ELISA) (PD1-IgG1.Fc): specifically bound
B1 | – | – | binding to recombinant HLA-A1 (ELISA) (recombinant HLA-A1): bound
B2 | – | – | OD450 of binding to human HLA-A2 (human HLA-A2): 1.3
